# Assay results from ChEMBL document CHEMBL6177963, “Development of acylhydrazone linked thiazoles as non-covalent dual inhibitors of SARS-CoV-2 proteases” (Eur J Med Chem, 2025).
# Key:
# [1] = target: Replicase polyprotein 1ab (Severe acute respiratory syndrome coronavirus 2, UniProt P0DTD1); assay: Inhibition of SARS-CoV-2 PLPro
# [2] = Cytotoxicity against African green monkey Vero E6 cells assessed as cell viability at 10 uM measured after 48 hrs by MTT assay relative to control; format: toxicity, cell-based, Vero C1008; conditions: chlorocebus sabaeus, read-out: Activity
# [3] = Cytotoxicity against human HEK293 cells assessed as cell viability measured after 48 hrs by MTT assay; format: toxicity, cell-based
SMILES,IC50 [1] [µM],"viability at 48 h, 10 µM [2] [%]",IC50 at 48 h [3] [µM]
O=C(O)c1cc(F)c2nc(N3[C@@H]4CC[C@H]3C[C@@H](OCc3c(-c5ccccc5OC(F)(F)F)noc3C3CC3)C4)sc2c1 [TROPIFEXOR],5.11,,
COc1cccc2c1C(=O)c1c(O)c3c(c(O)c1C2=O)C[C@@](O)(C(=O)CO)C[C@@H]3O[C@H]1C[C@H](N)[C@H](O)[C@H](C)O1 [DOXORUBICIN],,38.2,8.23
